# Data reported in patent US10238623B2, “C14-hydroxyl esterified amino acid derivative of triptolide, and preparation method and use thereof” (HANGZHOU WEBEN PHARMACEUTICALS INC, priority 2015, dated 2019).
# pIC50: −log10 of the molar value. “And” between values parts separate entries of the source, which are not always exact repeats. Identical values can stand only once.
# Experiments:
# [1] = system: Jurkat; experiment: MTT growth inhibition, Jurkat cells, 72 h; assay type: cell-based, human
# Experimental: (§1) 5000 well-grown leukemia cells or normal human blood cells were taken and seeded into wells of a 96-well cell culture plate. The medium was 1640 cell medium containing 10% fetal bovine serum. 14-D-Valine-TPL with different concentrations was added, and after being uniformly mixed, the plate was placed in a carbon dioxide (5% CO2) cell incubator, and incubated at 37° C. for 72 hours. The concentration of live cells was then determined using the MTT assay. In this experiment, the cell viability in the control group (without the compound treatment) was set to be 100%, and the cell viability (%) after the action of the compound the half maximal growth inhibitory concentration of leukemia cells at 72 hours (IC50 value at 72 hours) and the therapeutic window index were calculated. Therapeutic window index=IC50 value of normal blood cells/IC50 value of leukemia cells. […] A larger therapeutic window indicates a better selectivity of the compound for tumor cells.
# (§2) 5000 well-grown leukemia cells were taken and seeded into wells of a 96-well cell culture plate. The medium was 1640 cell medium containing 10% fetal bovine serum. 14-D-Valine-TPL with different concentrations was added, and after being uniformly mixed, the plate was placed in a carbon dioxide (5% CO2) cell incubator, and incubated at 37° C. for 72 hours. The concentration of live cells was then determined using the MTT assay. In this experiment, the cell viability in the control group (without the compound treatment) was set to be 100%, and the cell viability (%) after the action of the compound and the half maximal growth inhibitory concentration of leukemia cells at 72 hours (IC50 value at 72 hours) were calculated.
# as §2, with “well-grown lymphocytes” for “well-grown leukemia cells”
# [2] = system: CEM; experiment: MTT growth inhibition, CEM cells, 72 h; assay type: cell-based, human
# Experimental: as §1, §2
# as §2, with “well-grown lymphocytes” for “well-grown leukemia cells”
# [3] = system: Molt-4; experiment: MTT growth inhibition, Molt-4 cells, 72 h; assay type: cell-based, human; details: Homo sapiens, MOLT-4, 72 h
# Experimental: as §1, §2
# as §2, with “well-grown lymphocytes” for “well-grown leukemia cells”
# [4] = system: U937; experiment: MTT growth inhibition, U937 cells, 72 h; assay type: cell-based; details: Homo sapiens, U-937
# Experimental: as §2
# [5] = system: human acute monocytic leukemia THP-1 cells; experiment: THP-1 subcutaneous xenograft in NOD/SCID mice; assay type: in vivo; details: for Tumor weight: THP-1, individual mice, end of experiment
# Experimental: 7-week old female NOD/SCID mice were taken and inoculated subcutaneously with 1×10^7 cells (0.2 ml) per mouse in axilla, with human acute myelogenous leukemia KG-1a cells on the left and human acute monocytic leukemia THP-1 cells on the right. When tumors grew to a tumor size of around 0.5 cm, the mice were randomized into groups with 3 mice each. An equivalent amount of PBS was used for the control group, and the 14-D-Valine-TPL group was divided into two groups with 0.2 mg/kg body weight and 0.4 mg/kg body weight: intragastric administration 2 times a day (one at 8 a.m. and one at 4 p.m.) for consecutive 14 days of treatment. An observation was made for total 30 days, during which the conditions of the mice such as tumor size, weight, activity, diet, and the like were measured. At the end of the experiment, the mice were sacrificed, tumor tissues were taken and the tumors were weighed, and major organs and tissues of the mice such as liver, spleen, heart, lung, large intestine, small intestine, and the like were examined.
smiles,measurement,setting,value
"CC(C)[C@@H](N)C(=O)O[C@@H]1[C@@]2(C(C)C)O[C@H]2[C@@H]2O[C@]23[C@]12O[C@H]2C[C@H]1C2=C(CC[C@@]13C)C(=O)OC2 [14-D-Valine-TPL, 14-Dextro-Valine-Triptolide]",pIC50,"[1]; Homo sapiens, Jurkat, 72 h",7.44
same,Therapeutic window,[1]; IC50 of normal blood cells/IC50 of Jurkat,5.54
same,pIC50,"[2]; Homo sapiens, CCRF-CEM, 72 h",7.59
same,Therapeutic window,[2]; IC50 of normal blood cells/IC50 of CEM,7.89
same,pIC50,[3],7.97
same,pIC50,[4],7.22
same,Tumor weight,"[5]; trifluoroacetate 0.2 mg/kg intragastric 2 times a day, 14 days, listed as DV",0 g (3×) and 0.21 g and 0.06 g and 0.28 g
same,Tumor weight,"[5]; trifluoroacetate 0.4 mg/kg intragastric 2 times a day, 14 days",0 g
same,growth of THP-1 in mice in vivo (in words),"[5]; THP-1 xenograft, intragastric 2 times a day, 14 days, dose-dependent effect",significantly inhibit the growth
same,regression of THP-1 xenograft tumors,[5]; dose of 0.4 mg per kilogram of the body weight,complete regression
